Earlier results in patent US20160106677A1, “PHARMACEUTICAL COMPOSITION AND USES THEREOF” (Boehringer Ingelheim International GmbH, priority 2014, published 2016).

Test system: HbA1c
Conditions: metformin on its own, in the diabetic

CN(C)C(=N)N=C(N)N [metformin]
average improvement in the HbA1c value: 1.0-1.5%
